Laboratory results: patent US20120251630A1, “REMISSION THERAPY OF CANCER WITH ISOFLAVONOIDS” (MARSHALL EDWARDS, INC., priority 2011, published 2012)

Legend:
Format in all cases: cell-based, human
EOC stem cells [1] = assay: Western blot analysis of mitochondrial fractions, Bax
Experimental: FIG. 6. Western blot analysis using mitochondrial fractions illustrates the effect on mitochondrial Bax. U0126 inhibited compound 1-induced loss of mitochondrial membrane potential and mitochondrial translocation of Bax (member of the proapoptotic Bcl2 family).
(§1) Inhibitory studies were done using the specific MEK inhibitor U0126 (10 μM) or the ROS scavenger, MnTBAP (500 μM). EOC stem cells were treated with compound 1 in the presence or absence of the ROS scavenger, MnTBAP (Alexis Biochemicals). […] (FIG. 4) EOC stem cells were treated with compound 1 in the presence or absence of the MEK inhibitor, U0126 (Sigma Aldrich). EOC stem cells were pre-treated with U0126 (10 μM) for 1 hour before treatment with compound 1. Flow cytometry analysis using JC1 green fluorescence illustrates the effect of compound 1 on mitochondrial membrane potential. Pretreatment with U0126 reduced the percentage of cells that lost mitochondrial membrane potential (59% vs 23% for compound 1 along and compound 1 with U0126, respectively) (FIG. 5). The mitochondrial fractions of cells treated with compound 1 in the presence or absence of U0126 were analyzed. […] (FIG. 6)

EOC stem cells [2] = assay: Flow cytometry with JC1 dye, mitochondrial membrane potential
Experimental: FIG. 5. EOC stem cells were treated with compound 1 in the presence or absence of the MEK inhibitor, U0126. Flow cytometry analysis using JC1 dye illustrates the effect on mitochondrial membrane potential (MMP). FIG. 5 illustrates that inhibition of ERK with U0126 is able to reverse the effect of compound 1 on MMP.
(§2) A panel of CD44+/MYD88+ epithelial ovarian cancer (EOC) stem cells was treated with compound 1 (10 μg/mL) at designated times. CD44+/MYD88+ ovarian cancer stem cells are isolated from either tumor tissue or ascites obtained from patients diagnosed with stage III/IV serous ovarian carcinoma. Mitochondrial function was assessed using the JC1 dye (Biovision Inc), MitoSox dye (Invitrogen), and ApoSENSOR ADP/ATP kit (Biovision Inc.). Protein levels were determined using Western blot analysis. […] The impact of compound 1 on energy production was examined by measuring ADP and ATP levels. […] The stem cells were treated with increasing with compound 1 (10 μg/mL) at times points shown.
Inhibitory studies were done using the specific MEK inhibitor U0126 (10 μM) or the ROS scavenger, MnTBAP (500 μM). […] Flow cytometry analysis using JC1 green fluorescence illustrates the effect of compound 1 on mitochondrial membrane potential. […] The mitochondrial fractions of cells treated with compound 1 in the presence or absence of U0126 were analyzed. […]

EOC stem cells [3] = assay: Western blot analysis of protein levels (Cox-IV, pS6 kinase, ERK, AMPKα1)
Experimental: FIG. 3. Western blot analysis illustrates a decrease in Cox-IV and pS6 kinase, and activation of ERK and AMPKα1 (C).
FIG. 4. EOC stem cells were treated with compound 1 in the presence or absence of the ROS scavenger, MnTBAP. Western blot analysis (FIG. 2) illustrates the effect of MnTBAP pretreatment on mitochondrial ERK, pS6 and β-actin activation. […] Compound 1-induced ROS production leads to ERK activation and loss of mitochondrial membrane potential (MMP).
FIG. 8. Western blot analysis illustrates that treatment of ovarian cancer stem cells with compound 1 in the presence of FBS was able to prevent compound 1 induced decrease in pS6 kinase.
as §2, §1
(§3) EOC stem cells were treated with compound 1 in the presence of 10% fetal bovine serum (FBS).

ovarian cancer stem cell = assay: Mitochondrial function assessment (JC1 dye, MitoSox dye, ApoSENSOR ADP/ATP kit); conditions: overall conclusion of Example 1
Experimental: as §2

[4] = tested on: CD44+/MYD88+ epithelial ovarian cancer (EOC) stem cells; assay: Flow cytometry with MitoSox dye, mitochondrial superoxide; conditions: 10 μg/mL, designated times
Experimental: FIG. 1. EOC stem cells were treated with 10 μg/ml compound 1 at designated times. Flow cytometry analysis (FIG. 1) illustrates the increased levels of mitochondrial superoxide using MitoSox dye.
as §2

[5] = tested on: CD44+/MYD88+ epithelial ovarian cancer (EOC) stem cells; assay: ApoSENSOR ADP/ATP ratio assay kit, ATP and ADP levels
Experimental: FIG. 2 illustrates the levels of ATP and ADP measured at designated times using Apo-SENSOR ADP/ATP ratio assay kit. […] (p<0.0001 compared to control)
FIG. 7. Compound 1-induced loss of ATP leads to mTor inhibition. EOC stem cells were treated with compound 1 in the presence of 10% FBS. FIG. 7 illustrates the levels of ATP and ADP measured at designated times using ApoS-SENSOR ADP/ATP ratio assay kit. # p<0.001 compared to compound 1 alone.
as §2, §3

[6] = in the presence of 10% fetal bovine serum (FBS)

With `COc1ccc(C2c3ccc(O)c(C)c3OCC2c2ccc(O)cc2)cc1` (stereo not drawn) [compound 1, 3-(4-hydroxyphenyl)-4-(4-methoxyphenyl)-8-methylchroman-7-ol] the “mitochondrial Bax (proapoptotic Bcl2 family member)” value (EOC stem cells [1]; compound 1 alone, mitochondrial fractions) was “upregulates”, the “compound 1-induced upregulation of mitochondrial Bax” value (EOC stem cells [1]; pre-treatment with U0126 followed by compound 1) was “prevented compound 1-induced upregulation” and the “percentage of cells that lost mitochondrial membrane potential” value (EOC stem cells [2]; compound 1 alone) was 59%. For the same compound, the “percentage of cells that lost mitochondrial membrane potential” value (EOC stem cells [2]; pre-treated with MEK inhibitor U0126 (10 μM) for 1 hour before compound 1) was 23%, the “Cox-IV protein level (Western blot)” value (EOC stem cells [3]; 10 μg/mL) was “decreases activation” and the “activation of AMPKα1 (Western blot)” value (EOC stem cells [3]; 10 μg/mL) was “increases activation”. For the same compound, the “activation of ERK (Western blot)” value (EOC stem cells [3]; 10 μg/mL) was “increases activation”, the “activation of pS6 kinase (Western blot)” value (EOC stem cells [3]; 10 μg/mL) was “decreases activation” and the “compound 1-induced decrease in pS6k” value (EOC stem cells [3]; [6]) was “prevented compound 1-induced decrease in pS6k”. The “compound 1-induced activation of mitochondrial ERK” value (EOC stem cells [3]; in the presence of ROS scavenger MnTBAP (500 μM)) was “MnTBAP inhibited compound 1-induced activation of mitochondrial ERK”, the mitochondrial function (ovarian cancer stem cell) was “significantly inhibits mitochondrial function” and the “mitochondrial superoxide (MitoSox fluorescence)” value [4] was “increase in mitochondrial superoxide”. The ADP level ([5]; 10 μg/mL, after 2 and 4 hours of treatment) was “accumulated ADP”, the ATP production ([5]; 10 μg/mL, after 2 and 4 hours of treatment, p<0.0001 compared to control) was “decrease in ATP production” and the ATP loss [5, 6] was “Abrogation of ATP loss”.
